Laboratory results from patent US10993983B2, “Cyclic peptide epitopes and small-molecule mimics for inducing autophagy” (TRUSTEES OF TUFTS COLLEGE, priority 2016, dated 2021).
Marks after values point to notes of the source that are not given here. Where no end group is shown, it is not given here. [ ]: non-standard residue; d: D form.

What was measured:
[1] = tested on: p62; assay: p62 degradation assay (p62/actin immunoblot);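 on Activity (μM) 10, p62/actin assay activity: HeLa cells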;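 on Activity (μM) 100, p62/actin assay activity: HeLa cells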;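 on Activity (μM) 20, p62/actin assay activity: HeLa cells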;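 on Activity (μM) 30, p62/actin assay activity: HeLa cells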;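 on Activity (μM) 50, p62/actin assay activity: HeLa cells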; type: cell-based; design: key: −: activity not reported; 0: decreased vs. WT; +: similar to WT; ++: modest increase vs. WT; +++: significant increase vs. WT; conditions: for Activity (μM) 10, p62/actin assay activity: 10 μM; for Activity (μM) 30, p62/actin assay activity: 30 μM; for Activity (μM) 50, p62/actin assay activity: 50 μM; for Activity (μM) 100, p62/actin assay activity: 100 μM; for Activity (μM) 10, starred cell, p62/actin assay activity: Table 8, 10 μM marked * (footnote: data taken at 20 instead of 30 μM)
Procedure: (§1) Cells were treated with peptide in OPTI-MEM (Thermo Scientific) acidified with 0.15% (v/v) 6N HCl for 3 hour. Cells were rinsed with Dulbecco's phosphate buffered saline (PBS) and lysed in lysis buffer (20 mM HEPES, 150 mM NaCl, 1 mM EDTA, 1% Triton X-100, protease inhibitor cocktail (Roche) on ice for 1 hour. Cell lysates were centrifuged at 16,000 g for 10 min at 4° C. and analyzed by SDS-PAGE and transferred to PVDF membranes. The membranes were blocked 5% non-fat dry milk (NFDM) in PBST (PBS+0.05% Tween-20) for 1 hour, then incubated overnight at 4° C. with primary antibody in 5% NFDM in PBST. The blots were washed with PBST and incubated with HRP-conjugated secondary antibodies diluted in 5% NFDM in PBST for 1 hour at room temperature. Membranes were washed with PBST and visualized with SuperSignal West Pico Chemiluminescent Substrate (Thermo Scientific). Semi-quantitative results were obtained by noting the lowest concentration at which both p62 degradation and LC3-I to LC3-II conversion were observed.
(§2) Compounds 1-10 were evaluated using the assays described in Examples 4 and 5. Activity for each compound was measured in the p62 degradation assay and the LC3 marker assay as described herein. The activity at each concentration of peptide is given as, for example, (0/+) where 0 would be the p62/actin assay activity and + would be the LC3 assay activity.

[2] = tested on: LC3; assay: LC3 marker assay (LC3-I to LC3-II conversion immunoblot);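 on Activity (μM) 10, LC3 assay activity: HeLa cells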;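 on Activity (μM) 100, LC3 assay activity: HeLa cells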;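 on Activity (μM) 20, LC3 assay activity: HeLa cells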;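 on Activity (μM) 30, LC3 assay activity: HeLa cells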;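 on Activity (μM) 50, LC3 assay activity: HeLa cells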; type: cell-based; design: key: −: activity not reported; 0: decreased vs. WT; +: similar to WT; ++: modest increase vs. WT; +++: significant increase vs. WT; conditions: for Activity (μM) 10, LC3 assay activity: 10 μM; for Activity (μM) 30, LC3 assay activity: 30 μM; for Activity (μM) 50, LC3 assay activity: 50 μM; for Activity (μM) 100, LC3 assay activity: 100 μM; for Activity (μM) 10, starred cell, LC3 assay activity: Table 8, 10 μM marked * (footnote: data taken at 20 instead of 30 μM)
Procedure: as §1, §2

[3] = Table 8, control compound T25, first symbol
[4] = Table 8, control compound T25, second symbol
[5] = Table 3, control vehicle, first symbol
[6] = Table 3, control vehicle, second symbol
[7] = Table 6, control DMSO, first symbol
[8] = Table 6, control DMSO, second symbol
[9] = Table 7, control compound T25, first symbol
[10] = Table 7, control compound T25, second symbol

VCNATCHIWH [Compound 34]
Activity (μM) 5, p62/actin assay activity ([1]; 5 μM, Table 8, control compound T25, first symbol): 0/0
Activity (μM) 10, p62/actin assay activity [1, 3]: 0/0
Activity (μM) 30, p62/actin assay activity [1, 3]: +
Activity (μM) 50, p62/actin assay activity [1, 3]: +++/+++
Activity (μM) 100, p62/actin assay activity [1, 3]: +++/+++
Activity (μM) 5, LC3 assay activity ([2]; 5 μM, Table 8, control compound T25, second symbol): 0/0
Activity (μM) 10, LC3 assay activity [2, 4]: 0/0
Activity (μM) 30, LC3 assay activity [2, 4]: ++
Activity (μM) 50, LC3 assay activity [2, 4]: +++/+++
Activity (μM) 100, LC3 assay activity [2, 4]: +++/+++

VWNATFHIWH (not fully specified (N-terminus, C-terminus)) [Compound 5, likely pa-10mer]
Activity (μM) 10, p62/actin assay activity ([1]; Table 3, control vehicle, first symbol of cell): 0/0
Activity (μM) 20, p62/actin assay activity ([1]; 20 μM, Table 3, control vehicle, first symbol): 0/0
Activity (μM) 30, p62/actin assay activity [1, 3]: 0/0
Activity (μM) 50, p62/actin assay activity [1, 5]: 0
Activity (μM) 50, p62/actin assay activity [1, 3]: 0/0
Activity (μM) 100, p62/actin assay activity [1, 5]: +/+
Activity (μM) 100, p62/actin assay activity [1, 3]: 0/0
Activity (μM) 10, starred cell, p62/actin assay activity ([1]; first symbol): 0/0*
Activity (μM) 10, LC3 assay activity ([2]; Table 3, control vehicle, second symbol of cell): 0/0
Activity (μM) 20, LC3 assay activity ([2]; 20 μM, Table 3, control vehicle, second symbol): 0/0
Activity (μM) 30, LC3 assay activity [2, 4]: 0/0
Activity (μM) 50, LC3 assay activity [2, 6]: +
Activity (μM) 50, LC3 assay activity [2, 4]: 0/0
Activity (μM) 100, LC3 assay activity [2, 6]: +/+
Activity (μM) 100, LC3 assay activity [2, 4]: 0/0
Activity (μM) 10, starred cell, LC3 assay activity ([2]; second symbol): 0/0*

VCNATCHIWH [Compound 22]
Activity (μM) 10, p62/actin assay activity [1, 7]: +++
Activity (μM) 30, p62/actin assay activity [1, 7]: +++
Activity (μM) 50, p62/actin assay activity [1, 7]: +++
Activity (μM) 100, p62/actin assay activity [1, 7]: +++
Activity (μM) 10, LC3 assay activity [2, 8]: +
Activity (μM) 30, LC3 assay activity [2, 8]: +
Activity (μM) 50, LC3 assay activity [2, 8]: ++
Activity (μM) 100, LC3 assay activity [2, 8]: +

VCNACFHIWH [Compound 71]
Activity (μM) 30, p62/actin assay activity [1, 3]: 0
Activity (μM) 50, p62/actin assay activity [1, 3]: 0
Activity (μM) 10, starred cell, p62/actin assay activity ([1]; first symbol): 0
Activity (μM) 30, LC3 assay activity [2, 4]: ++
Activity (μM) 50, LC3 assay activity [2, 4]: +++
Activity (μM) 10, starred cell, LC3 assay activity ([2]; second symbol): +

VCNATCHIWH [Compound 25]
Activity (μM) 10, p62/actin assay activity [1, 7]: ++/++
Activity (μM) 30, p62/actin assay activity [1, 7]: ++/++
Activity (μM) 50, p62/actin assay activity [1, 7]: +++/+++
Activity (μM) 100, p62/actin assay activity [1, 7]: +++/+++
Activity (μM) 10, LC3 assay activity [2, 8]: ++/++
Activity (μM) 30, LC3 assay activity [2, 8]: ++/++
Activity (μM) 50, LC3 assay activity [2, 8]: +++/+++
Activity (μM) 100, LC3 assay activity [2, 8]: +++/+++

VCNATCHIWH [Compound 35]
Activity (μM) 10, p62/actin assay activity [1, 3]: 0/0
Activity (μM) 30, p62/actin assay activity [1, 3]: 0
Activity (μM) 50, p62/actin assay activity [1, 3]: +++
Activity (μM) 100, p62/actin assay activity [1, 3]: +++
Activity (μM) 10, LC3 assay activity [2, 4]: 0/0
Activity (μM) 30, LC3 assay activity [2, 4]: +
Activity (μM) 50, LC3 assay activity [2, 4]: ++
Activity (μM) 100, LC3 assay activity [2, 4]: ++

VCNATCRIWR (V[dC]NAT[dC]RIWR; not fully specified (C-terminus); cysteine pairing not given here) [Compound 42]
Activity (μM) 50, p62/actin assay activity [1, 3]: 0/0
Activity (μM) 100, p62/actin assay activity [1, 3]: 0/0
Activity (μM) 50, LC3 assay activity [2, 4]: 0/0
Activity (μM) 100, LC3 assay activity [2, 4]: 0/0

VCNACFHIWH [Compound 73]
Activity (μM) 30, p62/actin assay activity [1, 3]: 0
Activity (μM) 50, p62/actin assay activity [1, 3]: +
Activity (μM) 10, starred cell, p62/actin assay activity ([1]; first symbol): 0/0*
Activity (μM) 30, LC3 assay activity [2, 4]: +
Activity (μM) 50, LC3 assay activity [2, 4]: +++
Activity (μM) 10, starred cell, LC3 assay activity ([2]; second symbol): 0/0*

VCNATCHIWH [Compound 31]
Activity (μM) 30, p62/actin assay activity [1, 9]: 0/0
Activity (μM) 50, p62/actin assay activity [1, 9]: 0/0
Activity (μM) 100, p62/actin assay activity [1, 9]: 0/0
Activity (μM) 30, LC3 assay activity [2, 10]: 0/0
Activity (μM) 50, LC3 assay activity [2, 10]: 0/0
Activity (μM) 100, LC3 assay activity [2, 10]: 0/0

VCNATCHIWH [Compound 36]
Activity (μM) 50, p62/actin assay activity [1, 3]: 0/0
Activity (μM) 100, p62/actin assay activity [1, 3]: 0/0
Activity (μM) 50, LC3 assay activity [2, 4]: 0/0
Activity (μM) 100, LC3 assay activity [2, 4]: 0/0

VCNATCHIWH [Compound 32]
Activity (μM) 30, p62/actin assay activity [1, 9]: ++
Activity (μM) 50, p62/actin assay activity [1, 9]: ++
Activity (μM) 100, p62/actin assay activity [1, 9]: ++
Activity (μM) 30, LC3 assay activity [2, 10]: 0
Activity (μM) 50, LC3 assay activity [2, 10]: 0
Activity (μM) 100, LC3 assay activity [2, 10]: 0

VCNATCHIWH [Compound 48]
Activity (μM) 50, p62/actin assay activity [1, 3]: +++/+++
Activity (μM) 100, p62/actin assay activity [1, 3]: +++/+++
Activity (μM) 50, LC3 assay activity [2, 4]: +++/+++
Activity (μM) 100, LC3 assay activity [2, 4]: +++/+++
